Laboratory results published in PubChem BioAssay AID256 (DTP/NCI, 2004).
Values joined by “and” are separate entries in the source; they are usually repeats but may differ in a detail not shown here. Identical values can stand only once. Inconclusive results and toxic doses are left out. The calls were made as follows: active = survival T/C of 150% or more; inactive = T/C below 125% in these data.

System: CD2F1 mice, L1210 leukemia ip, survival T/C
Assay: NCI In Vivo Anticancer Drug Screen. Data for tumor model L1210 Leukemia (intraperitoneal) in CD2F1 (CDF1) mice
Conditions: higher = longer survival
Outline: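 Each value reflects a quotient of treated over vehicle control outcomes in mice with a transplanted tumor.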

[1] = endpoint: mean survival time, dose: 25.0 mg/kg/injection, schedule: Q04DX002 (ip), vehicle: saline with Tween-80
[2] = endpoint: mean survival time, dose: 50.0 mg/kg/injection, schedule: Q04DX002 (ip), vehicle: saline with Tween-80
[3] = endpoint: mean survival time, dose: 100.0 mg/kg/injection, schedule: Q04DX002 (ip), vehicle: saline with Tween-80
[4] = endpoint: mean survival time, dose: 400.0 mg/kg/injection, schedule: Q04DX002 (ip), vehicle: saline with Tween-80
[5] = endpoint: mean survival time, dose: 100.0 mg/kg/injection, schedule: Q01DX009 (ip), vehicle: saline with Tween-80
[6] = endpoint: mean survival time, dose: 400.0 mg/kg/injection, schedule: Q01DX009 (ip), vehicle: saline with Tween-80
[7] = endpoint: mean survival time, dose: 200.0 mg/kg/injection, schedule: Q01DX009 (ip), vehicle: saline with Tween-80
[8] = endpoint: mean survival time, dose: 25.0 mg/kg/injection, schedule: Q01DX009 (ip), vehicle: saline with Tween-80
[9] = endpoint: mean survival time, dose: 50.0 mg/kg/injection, schedule: Q01DX009 (ip), vehicle: saline
[10] = endpoint: mean survival time, dose: 100.0 mg/kg/injection, schedule: Q04DX003 (ip), vehicle: saline
[11] = endpoint: mean survival time, dose: 50.0 mg/kg/injection, schedule: Q01DX009 (ip), vehicle: saline with Tween-80
[12] = endpoint: mean survival time, dose: 50.0 mg/kg/injection, schedule: Q04DX003 (ip), vehicle: saline with Tween-80
[13] = endpoint: mean survival time, dose: 100.0 mg/kg/injection, schedule: Q04DX003 (ip), vehicle: saline with Tween-80
[14] = endpoint: mean survival time, dose: 200.0 mg/kg/injection, schedule: Q04DX003 (ip), vehicle: saline with Tween-80
[15] = endpoint: mean survival time, dose: 100.0 mg/kg/injection, schedule: Q01DX001 (ip), vehicle: saline with Tween-80
[16] = endpoint: mean survival time, dose: 200.0 mg/kg/injection, schedule: Q01DX001 (ip), vehicle: saline with Tween-80
[17] = endpoint: mean survival time, dose: 400.0 mg/kg/injection, schedule: Q01DX001 (ip), vehicle: saline with Tween-80
[18] = endpoint: median survival time, dose: 50.0 mg/kg/injection, schedule: Q04DX003 (ip), vehicle: saline with Tween-80
[19] = endpoint: median survival time, dose: 100.0 mg/kg/injection, schedule: Q04DX003 (ip), vehicle: saline with Tween-80
[20] = endpoint: mean survival time, dose: 25.0 mg/kg/injection, schedule: Q04DX003 (ip), vehicle: saline with Tween-80
[21] = endpoint: mean survival time, dose: 100.0 mg/kg/injection, schedule: Q04DX003 (ip), vehicle: other
[22] = endpoint: mean survival time, dose: 200.0 mg/kg/injection, schedule: Q04DX003 (ip), vehicle: other
[23] = endpoint: mean survival time, dose: 400.0 mg/kg/injection, schedule: Q04DX003 (ip), vehicle: other

Measured: T/C

CCCCCCCCCCCCCCCCCCOCCOCCOCCOCCO
inactive: [1] 91 % of control | [2] 100 % of control | [3] 94 % of control | [4] 94 % of control

COc1ccc(/C=N/NC(=O)CNC(=O)c2ccccc2)cc1
inactive: [5] 92 % of control | [6] 88 % of control

CCCCCCCCCCCCCCCC1=NC(C)(C)CN1C(C)C
inactive: endpoint: mean survival time, dose: 1.25 mg/kg/injection, schedule: Q01DX009 (ip), vehicle: saline with Tween-80 95 % of control | endpoint: mean survival time, dose: 2.5 mg/kg/injection, schedule: Q01DX009 (ip), vehicle: saline with Tween-80 102 % of control | endpoint: mean survival time, dose: 5.0 mg/kg/injection, schedule: Q01DX009 (ip), vehicle: saline with Tween-80 98 % of control

CC(=O)OC1(C)CC(C)(C)N=N1 (centres undefined)
inactive: endpoint: mean survival time, dose: 25.0 mg/kg/injection, schedule: Q01DX009 (ip), vehicle: Klucel (hydroxypropylcellulose) (HPC) 97 % of control | endpoint: mean survival time, dose: 50.0 mg/kg/injection, schedule: Q01DX009 (ip), vehicle: Klucel (hydroxypropylcellulose) (HPC) 99 % of control | endpoint: mean survival time, dose: 100.0 mg/kg/injection, schedule: Q01DX009 (ip), vehicle: Klucel (hydroxypropylcellulose) (HPC) 97 % of control | endpoint: mean survival time, dose: 200.0 mg/kg/injection, schedule: Q01DX009 (ip), vehicle: Klucel (hydroxypropylcellulose) (HPC) 97 % of control | endpoint: mean survival time, dose: 400.0 mg/kg/injection, schedule: Q01DX009 (ip), vehicle: Klucel (hydroxypropylcellulose) (HPC) 97 % of control

NC(=O)N/N=C\c1ccc(O)cn1
inactive: [5] 93 % of control | [7] 93 % of control | [6] 92 % of control

O=C(O)CSC1=NCCN1 (tested in a mixture with another compound)
inactive: endpoint: mean survival time, dose: 100.0 mg/kg/injection, schedule: Q01DX001 (ip), vehicle: saline 90 % of control | endpoint: mean survival time, dose: 200.0 mg/kg/injection, schedule: Q01DX001 (ip), vehicle: saline 93 % of control | endpoint: mean survival time, dose: 400.0 mg/kg/injection, schedule: Q01DX001 (ip), vehicle: saline 93 % of control

Nc1ncnc2sc3c(c12)CCCC3
inactive: endpoint: mean survival time, dose: 50.0 mg/kg/injection, schedule: Q04DX003 (ip), vehicle: Klucel (hydroxypropylcellulose) (HPC) 96 % of control | endpoint: mean survival time, dose: 100.0 mg/kg/injection, schedule: Q04DX003 (ip), vehicle: Klucel (hydroxypropylcellulose) (HPC) 100 % of control | endpoint: mean survival time, dose: 200.0 mg/kg/injection, schedule: Q04DX003 (ip), vehicle: Klucel (hydroxypropylcellulose) (HPC) 91 % of control

COc1cc2cc[n+]3c(C)c4cc5c(cc4cc3c2cc1OC)OCO5 (tested in a mixture with another compound)
inactive: [8] 120 % of control | endpoint: mean survival time, dose: 37.5 mg/kg/injection, schedule: Q01DX009 (ip), vehicle: saline with Tween-80 94 % of control | endpoint: mean survival time, dose: 37.5 mg/kg/injection, schedule: Q01DX009 (ip), vehicle: saline 108 % of control | [9] 106 % of control | [10] 121 % of control | endpoint: mean survival time, dose: 200.0 mg/kg/injection, schedule: Q04DX003 (ip), vehicle: saline 93 % of control

CC(=O)Nc1ccc(NC(=O)Nc2ccc(C)c([N+](=O)[O-])c2)cc1
inactive: [11] 98 % of control | [5] 98 % of control | [7] 98 % of control

CN1CCCN(C)C1c1ccccc1
inactive: endpoint: mean survival time, dose: 25.0 mg/kg/injection, schedule: Q01DX009 (ip), vehicle: saline 97 % of control | [9] 94 % of control | endpoint: mean survival time, dose: 100.0 mg/kg/injection, schedule: Q01DX009 (ip), vehicle: saline 89 % of control | [10] 104 % of control

O=C(c1ccccc1)C1OC1c1ccc(Cl)cc1 (centres undefined)
inactive: [12] 96 % of control | [13] 102 % of control | [14] 106 % of control

O=C(CC(O)(C(F)(F)F)C(F)(F)F)c1cccc(C(F)(F)F)c1
inactive: [15] 90 % of control | [16] 108 % of control | [17] 103 % of control

BrCc1cccc2cccnc12
inactive: [5] 88 % of control | [18] 88 % of control | [19] 88 % of control

Cc1ccc(S(=O)(=O)Nc2ccccc2N(CCN(CCOS(=O)(=O)c2ccc(C)cc2)S(=O)(=O)c2ccc(C)cc2)S(=O)(=O)c2ccc(C)cc2)cc1
inactive: [20] 95 % of control | [12] 100 % of control | [13] 91 % of control | [14] 95 % of control

CSc1ncc(C=O)c(N)n1
inactive: [15] 96 % of control | [16] 97 % of control | [17] 95 % of control

OCC1(OC2OC(CBr)C(O)C(O)C2O)OC(CBr)C(O)C1O (centres undefined)
inactive: [11] 98 % of control | [5] 91 % of control | [7] 95 % of control

CCCCCCCCCCCCCCCCCCN1CCCN(CCCCCCCCCCCCCCCCCC)CC1
inactive: [8] 107 % of control and 111 % of control | [1] 93 % of control and 98 % of control | endpoint: mean survival time, dose: 50.0 mg/kg/injection, schedule: Q01DX001 (ip), vehicle: saline with Tween-80 98 % of control | endpoint: mean survival time, dose: 50.0 mg/kg/injection, schedule: Q01DX009 (ip), vehicle: other 93 % of control and 95 % of control | [2] 89 % of control and 97 % of control | [12] 104 % of control | endpoint: mean survival time, dose: 100.0 mg/kg/injection, schedule: Q01DX001 (ip), vehicle: other 94 % of control | [15] 91 % of control | endpoint: mean survival time, dose: 100.0 mg/kg/injection, schedule: Q01DX009 (ip), vehicle: other 115 % of control and 101 % of control | endpoint: mean survival time, dose: 100.0 mg/kg/injection, schedule: Q04DX002 (ip), vehicle: other 94 % of control and 96 % of control | [21] 93 % of control | [13] 89 % of control | endpoint: mean survival time, dose: 200.0 mg/kg/injection, schedule: Q01DX001 (ip), vehicle: other 98 % of control | [16] 95 % of control | endpoint: mean survival time, dose: 200.0 mg/kg/injection, schedule: Q01DX009 (ip), vehicle: other 102 % of control and 108 % of control | endpoint: mean survival time, dose: 200.0 mg/kg/injection, schedule: Q04DX002 (ip), vehicle: other 96 % of control and 105 % of control | [22] 96 % of control | [14] 101 % of control | endpoint: mean survival time, dose: 400.0 mg/kg/injection, schedule: Q01DX001 (ip), vehicle: other 110 % of control | endpoint: mean survival time, dose: 400.0 mg/kg/injection, schedule: Q01DX009 (ip), vehicle: other 101 % of control and 104 % of control | endpoint: mean survival time, dose: 400.0 mg/kg/injection, schedule: Q04DX002 (ip), vehicle: other 105 % of control | [23] 100 % of control

C[S+]1C=C(c2ccccc2)C=C(c2ccccc2)C1 (centres undefined)
inactive: endpoint: mean survival time, dose: 7.5 mg/kg/injection, schedule: Q01DX001 (ip), vehicle: saline with Tween-80 114 % of control

O=C1NCC1c1ccccc1 (centres undefined)
inactive: endpoint: median survival time, dose: 25.0 mg/kg/injection, schedule: Q04DX003 (ip), vehicle: saline with Tween-80 90 % of control | [18] 90 % of control | [19] 100 % of control | endpoint: median survival time, dose: 200.0 mg/kg/injection, schedule: Q04DX003 (ip), vehicle: saline with Tween-80 90 % of control

CCN(CC)CCCC(C)Nc1ncnc2oc(C)c(C)c12 (centres undefined)
inactive: endpoint: mean survival time, dose: 6.25 mg/kg/injection, schedule: Q01DX009 (ip), vehicle: saline with Tween-80 93 % of control | endpoint: mean survival time, dose: 6.25 mg/kg/injection, schedule: Q04DX003 (ip), vehicle: saline with Tween-80 103 % of control | endpoint: mean survival time, dose: 12.5 mg/kg/injection, schedule: Q01DX009 (ip), vehicle: saline with Tween-80 95 % of control | endpoint: mean survival time, dose: 12.5 mg/kg/injection, schedule: Q04DX003 (ip), vehicle: saline with Tween-80 105 % of control | [8] 95 % of control | [20] 102 % of control

O=S1(=O)CCCC1C(O)c1ccccc1 (centres undefined)
inactive: [21] 100 % of control | [22] 95 % of control | [23] 95 % of control

COc1ccc(C(=O)CN(C)S(=O)(=O)c2ccc(C)cc2)cc1
inactive: [3] 97 % of control | endpoint: mean survival time, dose: 200.0 mg/kg/injection, schedule: Q04DX002 (ip), vehicle: saline with Tween-80 97 % of control | [4] 94 % of control
